# Measured values taken from patent publication US10760110B2, “Antibiotic testing and screening system” (priority 2017, dated 2020).
# Read-outs that look alike come from different tables or passages of the source.
# System: K. pneumoniae NVT1001 strains with ESBL or AmpC β-lactamase plasmids
# Assay: Etest MIC of β-lactams, OmpK35/36 loss, ΔramR and/or extended-spectrum β-lactamase and AmpC β-lactamase (Table 8)
# Type: cell-based, Klebsiella pneumoniae
# Settings: for MIC: Klebsiella pneumoniae
# Procedure: DNA fragments of the resistance genes along with their flanking regions were amplified from clinical plasmids via PCR with specific primer pairs. The resulting PCR fragments were digested and then cloned into the plasmid pACYC177 or pACYC184. The resulting plasmids were then transformed into K. pneumoniae strain NVT1001 via electroporation. The recombinant bacteria were plated onto LB agar plates containing kanamycin (50 mg/L) or chloramphenicol (50 mg/L), and the presence of the cloned gene was confirmed via PCR and DNA sequencing.
# The MICs of antibiotics were determined using the Etest (Biodisk AB, Sweden) according to the manufacturer's instructions. The MICs from the Etest, which fall between standard two-fold dilutions, were rounded up to the next highest two-fold value. The MICs of ceftazidime and cefotaxime against K. pneumoniae NVT1001 harbouring the pACYC177 plasmid with blaOXA-48 were further determined using a broth microdilution test according to the recommendations of the CLSI,^25 and the results were interpreted according to the breakpoints established by the CLSI in 2017.^25 Meanwhile, due to the lack of CLSI breakpoints in 2016 and 2017, the results for cephalothin were interpreted according to the breakpoints established by the CLSI in 2015,^26 and the results for moxifloxacin were interpreted according to the breakpoints established by the EUCAST in 2017.^27
# [1] = CMY-2 on pACYC177, WT (NVT1001), read-out: MIC
# [2] = CMY-2 on pACYC177, Δ35 (ΔompK35 mutant)
# [3] = CMY-2 on pACYC177, Δ35/36 (ΔompK35/36 mutant)
# [4] = CMY-2 on pACYC177, Δ36 (ΔompK36 mutant)
# [5] = CMY-2 on pACYC177, ΔramR mutant
# [6] = CMY-2 on pACYC177, ΔramRΔ35 (ΔramRΔompK35 mutant)
# [7] = CMY-2 on pACYC177, ΔramRΔ35/36 (ΔramRΔompK35/36 mutant)
# [8] = CMY-2 on pACYC177, ΔramRΔ36 (ΔramRΔompK36 mutant)
# [9] = CTX-M-14 on pACYC177, WT (NVT1001), read-out: MIC
# [10] = CTX-M-14 on pACYC177, Δ35 (ΔompK35 mutant)
# [11] = CTX-M-14 on pACYC177, Δ35/36 (ΔompK35/36 mutant)
# [12] = CTX-M-14 on pACYC177, Δ36 (ΔompK36 mutant)
# [13] = CTX-M-14 on pACYC177, ΔramR mutant
# [14] = CTX-M-14 on pACYC177, ΔramRΔ35 (ΔramRΔompK35 mutant)
# [15] = CTX-M-14 on pACYC177, ΔramRΔ35/36 (ΔramRΔompK35/36 mutant)
# [16] = CTX-M-14 on pACYC177, ΔramRΔ36 (ΔramRΔompK36 mutant)
# [17] = CTX-M-15 on pACYC177, WT (NVT1001), read-out: MIC
# [18] = CTX-M-15 on pACYC177, Δ35 (ΔompK35 mutant)
# [19] = CTX-M-15 on pACYC177, Δ35/36 (ΔompK35/36 mutant)
# [20] = CTX-M-15 on pACYC177, Δ36 (ΔompK36 mutant)
# [21] = CTX-M-15 on pACYC177, ΔramR mutant
# [22] = CTX-M-15 on pACYC177, ΔramRΔ35 (ΔramRΔompK35 mutant)
# [23] = CTX-M-15 on pACYC177, ΔramRΔ35/36 (ΔramRΔompK35/36 mutant)
# [24] = CTX-M-15 on pACYC177, ΔramRΔ36 (ΔramRΔompK36 mutant)
# [25] = DHA-1-AmpR on pACYC177, WT (NVT1001), read-out: MIC
# [26] = DHA-1-AmpR on pACYC177, Δ35 (ΔompK35 mutant)
# [27] = DHA-1-AmpR on pACYC177, Δ35/36 (ΔompK35/36 mutant)
# [28] = DHA-1-AmpR on pACYC177, Δ36 (ΔompK36 mutant)
# [29] = DHA-1-AmpR on pACYC177, ΔramR mutant
# [30] = DHA-1-AmpR on pACYC177, ΔramRΔ35 (ΔramRΔompK35 mutant)
# [31] = DHA-1-AmpR on pACYC177, ΔramRΔ35/36 (ΔramRΔompK35/36 mutant)
# [32] = DHA-1-AmpR on pACYC177, ΔramRΔ36 (ΔramRΔompK36 mutant)
# [33] = SHV-12 on pACYC177, WT (NVT1001), read-out: MIC
# [34] = SHV-12 on pACYC177, Δ35 (ΔompK35 mutant)
# [35] = SHV-12 on pACYC177, Δ35/36 (ΔompK35/36 mutant)
# [36] = SHV-12 on pACYC177, Δ36 (ΔompK36 mutant)
# [37] = SHV-12 on pACYC177, ΔramR mutant
# [38] = SHV-12 on pACYC177, ΔramRΔ35 (ΔramRΔompK35 mutant)
# [39] = SHV-12 on pACYC177, ΔramRΔ35/36 (ΔramRΔompK35/36 mutant)
# [40] = SHV-12 on pACYC177, ΔramRΔ36 (ΔramRΔompK36 mutant)
# [41] = no supplemental plasmid, WT (NVT1001), read-out: MIC
# [42] = no supplemental plasmid, Δ35 (ΔompK35 mutant)
# [43] = no supplemental plasmid, Δ35/36 (ΔompK35/36 mutant)
# [44] = no supplemental plasmid, Δ36 (ΔompK36 mutant)
# [45] = no supplemental plasmid, ΔramR mutant
# [46] = no supplemental plasmid, ΔramRΔ35 (ΔramRΔompK35 mutant)
# [47] = no supplemental plasmid, ΔramRΔ35/36 (ΔramRΔompK35/36 mutant)
# [48] = no supplemental plasmid, ΔramRΔ36 (ΔramRΔompK36 mutant)
compound,measurement,setting,value
C[C@@H](O)[C@H]1C(=O)N2C(C(=O)O)=C(SCCN=CN)C[C@H]12 [Imipenem],MIC,[1],1 µg/mL
same,MIC,[2],1 µg/mL
same,MIC,[3],> 32 µg/mL
same,MIC,[4],4 µg/mL
same,MIC,[5],1 µg/mL
same,MIC,[6],1 µg/mL
same,MIC,[7],32 µg/mL
same,MIC,[8],32 µg/mL
same,MIC,[9],0.5 µg/mL
same,MIC,[10],0.5 µg/mL
same,MIC,[11],1 µg/mL
same,MIC,[12],0.5 µg/mL
same,MIC,[13],0.25 µg/mL
same,MIC,[14],0.25 µg/mL
same,MIC,[15],0.5 µg/mL
same,MIC,[16],0.5 µg/mL
same,MIC,[17],0.5 µg/mL
same,MIC,[18],0.5 µg/mL
same,MIC,[19],4 µg/mL
same,MIC,[20],0.5 µg/mL
same,MIC,[21],0.5 µg/mL
same,MIC,[22],0.25 µg/mL
same,MIC,[23],2 µg/mL
same,MIC,[24],2 µg/mL
same,MIC,[25],0.5 µg/mL
same,MIC,[26],0.5 µg/mL
same,MIC,[27],32 µg/mL
same,MIC,[28],0.5 µg/mL
same,MIC,[29],0.25 µg/mL
same,MIC,[30],0.25 µg/mL
same,MIC,[31],16 µg/mL
same,MIC,[32],16 µg/mL
same,MIC,[33],0.5 µg/mL
same,MIC,[34],0.5 µg/mL
same,MIC,[35],1 µg/mL
same,MIC,[36],0.5 µg/mL
same,MIC,[37],0.25 µg/mL
same,MIC,[38],0.25 µg/mL
same,MIC,[39],1 µg/mL
same,MIC,[40],0.5 µg/mL
same,MIC,[41],0.5 µg/mL
same,MIC,[42],0.5 µg/mL
same,MIC,[43],0.5 µg/mL
same,MIC,[44],0.5 µg/mL
same,MIC,[45],0.25 µg/mL
same,MIC,[46],0.25 µg/mL
same,MIC,[47],0.5 µg/mL
same,MIC,[48],0.5 µg/mL
C[C@@H](O)[C@H]1C(=O)N2C(C(=O)O)=C(S[C@@H]3CN[C@H](CNS(N)(=O)=O)C3)[C@H](C)[C@H]12 [Doripenem],MIC,[1],0.25 µg/mL
same,MIC,[2],0.25 µg/mL
same,MIC,[3],8 µg/mL
same,MIC,[4],1 µg/mL
same,MIC,[5],0.125 µg/mL
same,MIC,[6],0.125 µg/mL
same,MIC,[7],4 µg/mL
same,MIC,[8],4 µg/mL
same,MIC,[9],0.125 µg/mL
same,MIC,[10],0.125 µg/mL
same,MIC,[11],1 µg/mL
same,MIC,[12],0.125 µg/mL
same,MIC,[13],0.06 µg/mL
same,MIC,[14],0.06 µg/mL
same,MIC,[15],0.5 µg/mL
same,MIC,[16],0.5 µg/mL
same,MIC,[17],0.125 µg/mL
same,MIC,[18],0.125 µg/mL
same,MIC,[19],4 µg/mL
same,MIC,[20],0.25 µg/mL
same,MIC,[21],0.125 µg/mL
same,MIC,[22],0.125 µg/mL
same,MIC,[23],2 µg/mL
same,MIC,[24],2 µg/mL
same,MIC,[25],0.125 µg/mL
same,MIC,[26],0.125 µg/mL
same,MIC,[27],8 µg/mL
same,MIC,[28],0.25 µg/mL
same,MIC,[29],0.125 µg/mL
same,MIC,[30],0.125 µg/mL
same,MIC,[31],4 µg/mL
same,MIC,[32],4 µg/mL
same,MIC,[33],0.125 µg/mL
same,MIC,[34],0.125 µg/mL
same,MIC,[35],1 µg/mL
same,MIC,[36],0.125 µg/mL
same,MIC,[37],0.06 µg/mL
same,MIC,[38],0.06 µg/mL
same,MIC,[39],0.5 µg/mL
same,MIC,[40],0.5 µg/mL
same,MIC,[41],0.06 µg/mL
same,MIC,[42],0.06 µg/mL
same,MIC,[43],0.125 µg/mL
same,MIC,[44],0.06 µg/mL
same,MIC,[45],0.03 µg/mL
same,MIC,[46],0.03 µg/mL
same,MIC,[47],0.5 µg/mL
same,MIC,[48],0.25 µg/mL
same,effects on the MIC,production of ESBLs tested alone,no significant (≥4-fold) effects
same,effects on the MIC,"strains with ΔramR, with or without ESBLs or AmpC β-lactamases",no significant (≥4-fold) effects
